According to ChEMBL document CHEMBL2029277, “Discovery of XL413, a potent and selective CDC7 inhibitor” (Bioorg Med Chem Lett, 2012):

Tests used:
[1] = target: T1, Cell division cycle 7-related protein kinase (Homo sapiens, UniProt O00311); test: Inhibition of N-terminus Myc-tagged human CDC7 expressed in Escherichia coli by chemiluminescence assay in presence of ATP
[2] = Plasma concentration in mouse at 100 mg/kg, po measured after 4 hrs; assay type: ADME, organism-based; set-up: dose 100 mg/kg, route oral
[3] = Plasma concentration in mouse at 100 mg/kg, po measured after 1 hr; assay type: ADME, organism-based; set-up: dose 100 mg/kg, route oral
[4] = target: Serine/threonine-protein kinase pim-1 (Homo sapiens, UniProt P11309); test: Inhibition of N-terminus His-tagged human PIM1 expressed in Escherichia coli using AKRRRLSA as substrate after 1 to 2 hrs by chemiluminescence assay
Chain of Serine/threonine-protein kinase pim-1 (P11309 whole entry): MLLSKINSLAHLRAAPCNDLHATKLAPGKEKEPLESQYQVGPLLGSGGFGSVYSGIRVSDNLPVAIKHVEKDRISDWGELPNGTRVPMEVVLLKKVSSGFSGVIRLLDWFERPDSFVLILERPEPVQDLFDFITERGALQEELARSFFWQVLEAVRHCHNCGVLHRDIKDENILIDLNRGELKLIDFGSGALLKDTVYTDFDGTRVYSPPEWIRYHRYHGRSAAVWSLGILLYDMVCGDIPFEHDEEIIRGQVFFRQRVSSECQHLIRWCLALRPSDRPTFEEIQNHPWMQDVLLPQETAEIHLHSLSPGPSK

[5] = target: Casein kinase II alpha/beta (Homo sapiens, UniProt P68400); test: Inhibition of human tertrameric CK2alphabeta holoenzyme using casein as substrate after 1 to 2 hrs by chemiluminescence assay in presence of 2 uM ATP; assay type: protein-complex assay
Chain of Casein kinase II alpha/beta (P67870 whole entry): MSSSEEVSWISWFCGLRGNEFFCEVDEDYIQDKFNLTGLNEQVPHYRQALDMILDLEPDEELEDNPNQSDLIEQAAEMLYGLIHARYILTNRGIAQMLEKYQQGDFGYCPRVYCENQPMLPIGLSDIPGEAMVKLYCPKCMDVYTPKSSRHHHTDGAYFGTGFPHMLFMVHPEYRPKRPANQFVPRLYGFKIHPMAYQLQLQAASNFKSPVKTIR
Chain of Casein kinase II alpha/beta (P68400 whole entry): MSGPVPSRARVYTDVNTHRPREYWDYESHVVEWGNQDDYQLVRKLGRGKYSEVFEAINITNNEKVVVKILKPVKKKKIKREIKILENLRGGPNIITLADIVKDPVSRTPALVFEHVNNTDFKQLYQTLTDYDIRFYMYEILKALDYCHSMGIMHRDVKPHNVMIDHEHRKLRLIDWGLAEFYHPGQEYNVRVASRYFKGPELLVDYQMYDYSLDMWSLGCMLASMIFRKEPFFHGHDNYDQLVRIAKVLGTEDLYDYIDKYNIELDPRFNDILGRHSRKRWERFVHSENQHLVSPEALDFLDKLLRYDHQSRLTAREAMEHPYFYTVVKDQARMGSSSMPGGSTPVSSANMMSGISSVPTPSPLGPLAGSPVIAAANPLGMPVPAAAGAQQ

[6] = target: T1, Cell division cycle 7-related protein kinase; test: Inhibition of CDC7 in human MDA-MB-231T cells assessed as inhibition of MCM2 phosphorylation at Ser53 after 4 hrs; assay type: cell-based

T1 sequence (O00311 whole entry): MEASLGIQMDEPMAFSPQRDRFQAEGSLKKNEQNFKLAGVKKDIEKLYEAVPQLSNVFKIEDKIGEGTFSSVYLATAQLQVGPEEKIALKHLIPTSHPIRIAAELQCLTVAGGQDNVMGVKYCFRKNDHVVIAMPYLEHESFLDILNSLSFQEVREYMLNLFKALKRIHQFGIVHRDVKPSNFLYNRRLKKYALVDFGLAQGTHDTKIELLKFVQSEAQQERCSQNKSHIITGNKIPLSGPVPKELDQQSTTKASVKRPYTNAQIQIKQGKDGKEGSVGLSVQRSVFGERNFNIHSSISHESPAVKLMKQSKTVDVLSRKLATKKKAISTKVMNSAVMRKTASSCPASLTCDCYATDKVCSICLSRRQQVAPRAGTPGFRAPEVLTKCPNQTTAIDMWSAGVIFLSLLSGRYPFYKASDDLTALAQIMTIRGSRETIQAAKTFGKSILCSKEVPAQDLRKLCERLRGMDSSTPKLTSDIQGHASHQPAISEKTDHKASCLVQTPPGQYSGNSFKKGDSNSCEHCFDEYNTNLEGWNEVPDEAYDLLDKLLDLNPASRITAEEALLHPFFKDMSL

Q: For `O=c1[nH]c([C@@H]2CCCN2)nc2c1oc1ccc(Br)cc12`, which IC50 [1] is on record?
A: 4.8 nM

Q: And the concentration at 4 h [2]?
A: 71 µM

Q: And the concentration at 1 h [3]?
A: 195 µM

Q: What about the IC50 [4] of the same molecule?
A: 31 nM

Q: And the IC50 [5]?
A: 91 nM

Q: And the IC50 [6]?
A: 75 nM

Q: For `O=c1[nH]c(CN2CC[C@H](O)C2)nc2c1oc1ccc3c(c12)OCO3`, which IC50 [1] is on record?
A: 14000 nM

Q: Which IC50 [1] does the source give for `O=c1[nH]c([C@@H]2C[C@@H](O)CN2)nc2c1oc1ccc(Br)cc12` here?
A: 9.1 nM

Q: What about the IC50 [4] of the same molecule?
A: 73 nM

Q: What about the IC50 [5] of the same molecule?
A: 418 nM

Q: What about the IC50 [6] of the same molecule?
A: 440 nM

Q: For `COc1ccc2oc3c(=O)[nH]c(CN4CC[C@H](O)C4)nc3c2c1`, which IC50 [1] is on record?
A: 9000 nM

Q: Which IC50 [1] does the source give for `COc1ccc2oc3c(=O)[nH]c([C@@H]4CCCN4)nc3c2c1` here?
A: 6.1 nM

Q: And the IC50 [4]?
A: 77 nM

Q: What about the IC50 [5] of the same molecule?
A: 238 nM

Q: What about the IC50 [6] of the same molecule?
A: 1370 nM
